Source: patent publication US5391540A, “Substituted pyridine compounds” (Rohm and Haas Company, priority 1993, dated 1995)

Legend:
Assay in all cases: Pre-emergent herbicidal activity (Table A)
Assay type in all cases: in vivo
[1] = test system: Common Lambsquarters; conditions: Chenopodium album, pre-emergence, Colq, 11.2 kg/ha, 10-14 days, read-out: herbicidal rating (% inhibition)
Protocol: (§1) The herbicidal ratings used in Tables A and B were assigned according to a scale based on the percent inhibition of each plant species. The herbicide rating symbols in Tables A and B are defined as follows: […]
(§2) One set of pre-emergent tests was conducted as follows:
(§3) Topsoil was placed in a pan and compacted to a depth of 0.95 to 1.27 cm. from the top of the pan. A predetermined number of seeds of each of several monocotyledonous and dicotyledonous annual plant species and/or vegetative propagules of various perennial plant species were placed on top of the soil. The soil required to level fill a pan after seeding or adding vegetative propagules was weighed into another pan. A known amount of the test compound dissolved or suspended in an organic solvent or water and applied in acetone or water as a carrier was thoroughly mixed with this cover soil, and the herbicide/soil mixture was used as a cover layer for the previously prepared pan.
(§4) The plant species usually regarded as weeds which were utilized in one set of pre-emergent activity tests, the data for which are shown in Table A, are identified by letter headings printed diagonally above the columns according to the following legend: […]

[2] = test system: Rhizome Johnsongrass; conditions: Sorghum halepense, pre-emergence, Rhjg, 11.2 kg/ha, 10-14 days, read-out: herbicidal rating (% inhibition)
Protocol: as §1, §2, §3, §4

[3] = test system: Velvetleaf; conditions: Abutilon theophrasti, pre-emergence, Vele, 11.2 kg/ha, 10-14 days, read-out: herbicidal rating (% inhibition)
Protocol: as §1, §2, §3, §4

[4] = test system: Pennsylvania Smartweed; conditions: pre-emergence, Pesw, 11.2 kg/ha, 10-14 days, read-out: herbicidal rating (% inhibition)
Protocol: as §1, §2, §3, §4

[5] = test system: Quackgrass; conditions: pre-emergence, Rhqg, 11.2 kg/ha, 10-14 days, read-out: herbicidal rating (% inhibition)
Protocol: as §1, §2, §3, §4

[6] = test system: Morningglory; conditions: Ipomoea, pre-emergence, Mogl, 11.2 kg/ha, 10-14 days, read-out: herbicidal rating (% inhibition)
Protocol: as §1, §2, §3, §4

[7] = test system: Barnyardgrass; conditions: Echinochloa crus-galli, pre-emergence, Bygr, 11.2 kg/ha, 10-14 days, read-out: herbicidal rating (% inhibition)
Protocol: as §1, §2, §3, §4

[8] = test system: Canada thistle; conditions: Cirsium arvense, pre-emergence, Cath, 11.2 kg/ha, 10-14 days, read-out: herbicidal rating (% inhibition)
Protocol: as §1, §2, §3, §4

[9] = test system: Yellow Nutsedge; conditions: Cyperus, pre-emergence, Yens, 11.2 kg/ha, 10-14 days, read-out: herbicidal rating (% inhibition)
Protocol: as §1, §2, §3, §4

[10] = test system: Cocklebur; conditions: Xanthium strumarium, pre-emergence, Cobu, 11.2 kg/ha, 10-14 days, read-out: herbicidal rating (% inhibition)
Protocol: as §1, §2, §3, §4

[11] = test system: Downy Brome; conditions: Bromus tectorum, pre-emergence, Dobr, 11.2 kg/ha, 10-14 days, read-out: herbicidal rating (% inhibition)
Protocol: as §1, §2, §3, §4

## CCSC=Nc1c(C(F)(F)F)nc(OC)c(C(=O)OC)c1CC(C)C [Compound 78, 3-pyridinecarboxylic acid, 5-[[(ethylthio)methylene]amino]-2-methoxy-4-(2-methylpropyl)-6-(trifluoromethyl)-, methyl ester]
[1]
  inhibition at 11200 g/ha: 75 to 100%
[2]
  inhibition at 11200 g/ha: 0 to 24%
[3]
  inhibition at 11200 g/ha: 75 to 100%
[4]
  inhibition at 11200 g/ha: 75 to 100%
[5]
  inhibition at 11200 g/ha: 50 to 74%
[6]
  inhibition at 11200 g/ha: 75 to 100%
[7]
  inhibition at 11200 g/ha: 75 to 100%
[8]
  inhibition at 11200 g/ha: 75 to 100%
[9]
  inhibition at 11200 g/ha: 0 to 24%
[10]
  inhibition at 11200 g/ha: 0 to 24%
[11]
  inhibition at 11200 g/ha: 75 to 100%

## COC(=O)c1c(C(F)(F)F)nc(OC)c(C#N)c1CC(C)C [Compound 20, 3-pyridinecarboxylic acid, 5-cyano-6-methoxy-4-(2-methylpropyl)-2-(trifluoromethyl)-, methyl ester]
[1]
  inhibition at 11200 g/ha: 75 to 100%
[2]
  inhibition at 11200 g/ha: 75 to 100%
[3]
  inhibition at 11200 g/ha: 0 to 24%
[4]
  inhibition at 11200 g/ha: 25 to 49%
[5]
  inhibition at 11200 g/ha: 75 to 100%
[6]
  inhibition at 11200 g/ha: 50 to 74%
[7]
  inhibition at 11200 g/ha: 75 to 100%
[8]
  inhibition at 11200 g/ha: 0 to 24%
[9]
  inhibition at 11200 g/ha: 0 to 24%
[10]
  inhibition at 11200 g/ha: 0 to 24%
[11]
  inhibition at 11200 g/ha: 75 to 100%

## COC(=O)c1c(OC)nc(C(F)(F)F)c(C(=O)OC)c1C [Compound 86, 3,5-pyridinedicarboxylic acid, 2-methoxy-4-methy1-6-(trifluoromethyl)-, dimethyl ester]
[1]
  inhibition at 11200 g/ha: 75 to 100%
[2]
  inhibition at 11200 g/ha: 75 to 100%
[3]
  inhibition at 11200 g/ha: 50 to 74%
[4]
  inhibition at 11200 g/ha: 50 to 74%
[5]
  inhibition at 11200 g/ha: 75 to 100%
[6]
  inhibition at 11200 g/ha: 75 to 100%
[7]
  inhibition at 11200 g/ha: 75 to 100%
[8]
  inhibition at 11200 g/ha: 0 to 24%
[9]
  inhibition at 11200 g/ha: 0 to 24%
[10]
  inhibition at 11200 g/ha: 0 to 24%
[11]
  inhibition at 11200 g/ha: 75 to 100%

## CCOC(=O)c1c(OC(C)C)nc(C(F)(F)F)c(C(=O)OC)c1CC(C)C [Compound 5, 3,5-pyridinedicarboxylic acid, 2-(1-methylethoxy)-4-(2-methylpropyl)-6-(trifluoromethyl)-, 3-ethyl 5-methyl ester]
[1]
  inhibition at 11200 g/ha: 75 to 100%
[2]
  inhibition at 11200 g/ha: 75 to 100%
[3]
  inhibition at 11200 g/ha: 0 to 24%
[4]
  inhibition at 11200 g/ha: 25 to 49%
[5]
  inhibition at 11200 g/ha: 50 to 74%
[6]
  inhibition at 11200 g/ha: 0 to 24%
[7]
  inhibition at 11200 g/ha: 75 to 100%
[8]
  inhibition at 11200 g/ha: 0 to 24%
[9]
  inhibition at 11200 g/ha: 0 to 24%
[10]
  inhibition at 11200 g/ha: 0 to 24%
[11]
  inhibition at 11200 g/ha: 75 to 100%

## CCOC(=O)c1c(OC)nc(C(F)F)c(C(=O)OC)c1CC(C)C [Compound 26, 3,5-pyridinedicarboxylic acid, 2-(difluoromethyl)-6-methoxy-4-(2-methylpropyl)-, 5-ethyl 3-methyl ester]
[1]
  inhibition at 11200 g/ha: 75 to 100%
[2]
  inhibition at 11200 g/ha: 75 to 100%
[3]
  inhibition at 11200 g/ha: 75 to 100%
[4]
  inhibition at 11200 g/ha: 75 to 100%
[5]
  inhibition at 11200 g/ha: 75 to 100%
[6]
  inhibition at 11200 g/ha: 75 to 100%
[7]
  inhibition at 11200 g/ha: 75 to 100%
[8]
  inhibition at 11200 g/ha: 75 to 100%
[9]
  inhibition at 11200 g/ha: 0 to 24%
[10]
  inhibition at 11200 g/ha: 0 to 24%
[11]
  inhibition at 11200 g/ha: 75 to 100%

## CNC(=O)c1c(OC)nc(C(F)(F)F)c(C(=O)OC)c1CC(C)C [Compound 21, 3-pyridinecarboxylic acid, 6-methoxy-5-[(methylamino)carbonyl]-4-(2-methylpropyl)-2-(trifluoromethyl)-, methyl ester]
[1]
  inhibition at 11200 g/ha: 75 to 100%
[2]
  inhibition at 11200 g/ha: 0 to 24%
[3]
  inhibition at 11200 g/ha: 0 to 24%
[4]
  inhibition at 11200 g/ha: 0 to 24%
[5]
  inhibition at 11200 g/ha: 75 to 100%
[6]
  inhibition at 11200 g/ha: 0 to 24%
[7]
  inhibition at 11200 g/ha: 75 to 100%
[8]
  inhibition at 11200 g/ha: 0 to 24%
[9]
  inhibition at 11200 g/ha: 0 to 24%
[10]
  inhibition at 11200 g/ha: 0 to 24%
[11]
  inhibition at 11200 g/ha: 75 to 100%

## COC(=O)c1c(C(F)(F)F)nc(OC)c(N=CN(C)C)c1CC(C)C [Compound 57, 3-pyridinecarboxylic acid, 5[[(dimethylamino)methylene]amino]-6-methoxy-4-(2-methylpropyl)-2-(trifluoromethyl)-, methyl ester]
[1]
  inhibition at 11200 g/ha: 75 to 100%
[2]
  inhibition at 11200 g/ha: 75 to 100%
[3]
  inhibition at 11200 g/ha: 50 to 74%
[4]
  inhibition at 11200 g/ha: 0 to 24%
[5]
  inhibition at 11200 g/ha: 75 to 100%
[6]
  inhibition at 11200 g/ha: 50 to 74%
[7]
  inhibition at 11200 g/ha: 75 to 100%
[8]
  inhibition at 11200 g/ha: 0 to 24%
[9]
  inhibition at 11200 g/ha: 0 to 24%
[10]
  inhibition at 11200 g/ha: 0 to 24%
[11]
  inhibition at 11200 g/ha: 75 to 100%

## CCOC(=O)C1=C(C(F)(F)F)NC(=O)C(C(N)=O)C1CC(C)C (stereo not drawn) [Compound 35, 3-pyridinecarboxylic acid, 5-(aminocarbonyl)-1,4,5,6-tetrahydro-4-(2-methylpropyl)-6-oxo-2-(trifluoromethyl)-, ethyl ester]
[1]
  inhibition at 11200 g/ha: 0 to 24%
[2]
  inhibition at 11200 g/ha: 0 to 24%
[3]
  inhibition at 11200 g/ha: 0 to 24%
[4]
  inhibition at 11200 g/ha: 0 to 24%
[5]
  inhibition at 11200 g/ha: 0 to 24%
[6]
  inhibition at 11200 g/ha: 0 to 24%
[7]
  inhibition at 11200 g/ha: 0 to 24%
[8]
  inhibition at 11200 g/ha: 0 to 24%
[9]
  inhibition at 11200 g/ha: 0 to 24%
[10]
  inhibition at 11200 g/ha: 0 to 24%
[11]
  inhibition at 11200 g/ha: 0 to 24%

## CCOC(=O)c1c(C(F)(F)F)nc(OC)c(C(=O)OC)c1CC(C)C [Compound 44, 3,5-pyridinedicarboxylic acid, 2-methoxy-4-(2-methylpropyl)-6-(trifluoromethyl)-, 5-ethyl 3-methyl ester]
[1]
  inhibition at 11200 g/ha: 75 to 100%
[2]
  inhibition at 11200 g/ha: 75 to 100%
[3]
  inhibition at 11200 g/ha: 75 to 100%
[4]
  inhibition at 11200 g/ha: 75 to 100%
[5]
  inhibition at 11200 g/ha: 75 to 100%
[6]
  inhibition at 11200 g/ha: 75 to 100%
[7]
  inhibition at 11200 g/ha: 75 to 100%
[8]
  inhibition at 11200 g/ha: 75 to 100%
[9]
  inhibition at 11200 g/ha: 75 to 100%
[10]
  inhibition at 11200 g/ha: 25 to 49%
[11]
  inhibition at 11200 g/ha: 75 to 100%

## CCOC(=O)c1c(OC)nc(C(F)(F)F)c(C(=O)OC)c1CC(C)C [Compound 4, 3,5-pyridinedicarboxylic acid, 2-methoxy-4-(2-methylpropyl)-6-(trifluoromethyl)-, 3-ethyl 5-methyl ester]
[1]
  inhibition at 11200 g/ha: 75 to 100%
[2]
  inhibition at 11200 g/ha: 75 to 100%
[3]
  inhibition at 11200 g/ha: 75 to 100%
[4]
  inhibition at 11200 g/ha: 75 to 100%
[5]
  inhibition at 11200 g/ha: 75 to 100%
[6]
  inhibition at 11200 g/ha: 75 to 100%
[7]
  inhibition at 11200 g/ha: 75 to 100%
[8]
  inhibition at 11200 g/ha: 75 to 100%
[9]
  inhibition at 11200 g/ha: 25 to 49%
[10]
  inhibition at 11200 g/ha: 0 to 24%
[11]
  inhibition at 11200 g/ha: 75 to 100%

## COC(=O)c1c(OC)nc(C(F)(F)F)c(C(=O)n2cccn2)c1C1CCC1 [Compound 52, 3-pyridinecarboxylic acid, 4-cyclobutyl-2-methoxy-5-(1H-pyrazo1-1-ylcarbonyl)-6-(trifluoromethyl)-, methyl ester]
[1]
  inhibition at 11200 g/ha: 75 to 100%
[2]
  inhibition at 11200 g/ha: 0 to 24%
[3]
  inhibition at 11200 g/ha: 75 to 100%
[4]
  inhibition at 11200 g/ha: 75 to 100%
[5]
  inhibition at 11200 g/ha: 75 to 100%
[6]
  inhibition at 11200 g/ha: 75 to 100%
[7]
  inhibition at 11200 g/ha: 75 to 100%
[8]
  inhibition at 11200 g/ha: 75 to 100%
[9]
  inhibition at 11200 g/ha: 75 to 100%
[10]
  inhibition at 11200 g/ha: 75 to 100%
[11]
  inhibition at 11200 g/ha: 75 to 100%

## COC(=O)c1c(OC)nc(C(F)(F)F)c(N)c1CC(C)C [Compound 36, 3-pyridinecarboxylic acid, 5-amino-2-methoxy-4-(2-methylpropyl)-6-(trifluoromethyl)-, methyl ester]
[1]
  inhibition at 11200 g/ha: 75 to 100%
[2]
  inhibition at 11200 g/ha: 75 to 100%
[3]
  inhibition at 11200 g/ha: 50 to 74%
[4]
  inhibition at 11200 g/ha: 75 to 100%
[5]
  inhibition at 11200 g/ha: 75 to 100%
[6]
  inhibition at 11200 g/ha: 50 to 74%
[7]
  inhibition at 11200 g/ha: 75 to 100%
[8]
  inhibition at 11200 g/ha: 25 to 49%
[9]
  inhibition at 11200 g/ha: 0 to 24%
[10]
  inhibition at 11200 g/ha: 0 to 24%
[11]
  inhibition at 11200 g/ha: 75 to 100%
